# In patent publication US9388147B2 (Receptos, Inc., priority 2009, dated 2016):
# Columns and labels:
# TNBS induced colitis = assay: TNBS Crohn's colitis model in rats; type: in vivo, Sprague-Dawley rat; conditions: 1 mg/kg oral daily for six days, 31% in the diseased rats
# Procedure: Male Sprague-Dawley rats (180-200 g) were acclimatized for seven days and then assigned to 8 rats per group so that each group had approximately the same mean weight. Twenty-four hours prior to disease initiation, rats are deprived of food. Rats were anaesthetized and weighed, then 80 mg/kg TNBS solution (50% TNBS: 50% 200 proof ethanol) was instilled into colon via a 20 g feeding needle inserted into the anus. The rats were maintained in head down position until recovery from anesthesia. Daily oral dosing was initiated 2 h post TNBS-instillation for six days. Prednisolone served as a positive control and was administered orally daily at 10 mg/kg. Body weights were monitored daily and 24 h after the last dose, all groups are terminated. The colon was removed, flushed of fecal matter and examined for gross changes including strictures, adhesions and ulcers. The colon length, weight of the distal 2 cm, and wall thickness was recorded.
# S1P1 R120A/E121A = target: T1, S1P1 R120A/E121A (Homo sapiens, UniProt P21453, E121A/R120A); assay: Phosphorylated-ERK1/2 In Cell Western, S1P1 R120A/E121A mutant in CHOK1 cells; type: cell-based
# T1 construct: expressed in transfected cells; host or cells: CHOK1
# T1 sequence (P21453 whole entry R120A/E121A): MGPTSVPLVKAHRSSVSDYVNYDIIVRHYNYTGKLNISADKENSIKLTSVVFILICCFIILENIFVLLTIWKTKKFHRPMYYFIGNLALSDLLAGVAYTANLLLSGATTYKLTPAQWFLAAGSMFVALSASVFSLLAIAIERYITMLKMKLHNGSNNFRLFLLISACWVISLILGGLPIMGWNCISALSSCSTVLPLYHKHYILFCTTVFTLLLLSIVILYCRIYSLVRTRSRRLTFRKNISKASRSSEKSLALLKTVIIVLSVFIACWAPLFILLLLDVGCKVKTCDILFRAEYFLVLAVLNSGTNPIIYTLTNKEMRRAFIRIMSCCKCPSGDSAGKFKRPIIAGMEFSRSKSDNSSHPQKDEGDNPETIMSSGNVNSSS
# Procedure: (§1) A. Quick-change mutagenesis with PfuTurbo DNA polymerase (Stratagene) was conducted using S1P1/pcDNA3.1 (Missouri S&T cDNA Resource Centre) as the template. Primers were as follows: […]
# (§2) PCR conditions were 15 cycles with the following parameters: 95° C. 30 sec, 58° C. 30 sec, 68° C. for 60 sec. All constructs were sequence verified.
# (§3) CHOK1 cells were transfected using Fugene (Roche). Stably expressing mixed pools were selected with 2 mg/ml G418. Expression of functional S1P1/EDG1 receptor was confirmed by cell surface FACS with a S1P1 antibody (R&D Systems, clone 218713). Stable pools were seeded at 40,000 cells/well in a clear bottom 96-well tray, and incubated at 37° C. in 5% CO2 for 18 hrs. Cells were serum-starved in FreeStyle 293 medium (Invitrogen) for 4-6 h, then incubated for 5 min with a dose response of compound, in duplicate. Cells were fixed with 4% paraformaldehyde for 20 min, permeabilized with 0.1% Triton X-100 in PBS (4×5 min washes) and blocked for 1 h in Odyssey Blocking Buffer (LI-COR). All incubations were at room temperature. Cells were incubated for 18 h at 4° C. in Rabbit anti-Phospho-ERK1/2 (Cell Signaling #4377) and Mouse anti-ERK1/2 (Cell Signaling #9107) both diluted 1:800 in Odyssey Blocking Buffer. Plates were washed with 0.1% Tween-20 in PBS and then incubated with Odyssey Blocking Buffer containing IRDye 680-labeled goat anti-rabbit antibody (#926-32221; diluted 1/500) and IRDye 800CW-labeled goat anti-mouse antibody (#926-32210; diluted 1/1000). Plates were washed with 0.1% Tween-20 in PBS, all liquid was removed from the wells and the plates were scanned using a LICOR Odyssey scanner. The phospho-ERK1/2 signal was normalized to the ERK1/2 signal. Data was analyzed by non-linear regression using GraphPad Prism to determine the EC50 of binding.
# S1P1 N101A = target: T2, S1P1 N101A (Homo sapiens, UniProt P21453, N101A); assay: Phosphorylated-ERK1/2 In Cell Western, S1P1 N101A mutant in CHOK1 cells; type: cell-based
# T2 construct: expressed in transfected cells; host or cells: CHOK1
# T2 sequence (P21453 whole entry N101A): as the sequence (P21453 whole entry R120A/E121A) above, with N101A, A120R, A121E counted along it
# Procedure: as §1, §2, §3
# S1P1 W269L = target: T3, S1P1 W269L (Homo sapiens, UniProt P21453, W269L); assay: Phosphorylated-ERK1/2 In Cell Western, S1P1 W269L mutant; type: cell-based
# T3 construct: expressed in transfected cells; host or cells: CHOK1
# T3 sequence (P21453 whole entry W269L): as the sequence (P21453 whole entry R120A/E121A) above, with A120R, A121E, W269L counted along it
# Procedure: as §3, with “The phospho-ERK1/2 signal was normalized to the ERK1/2 signal.” left out, “binding. […]” for “binding.”
# S1P1/EDG1 = S1P1/EDG1 (Homo sapiens, UniProt P21453); assay: Phosphorylated-ERK1/2 In Cell Western, wild type S1P1 in CHOK1 cells; type: cell-based
# Sequence of S1P1/EDG1 (P21453 whole entry): as the sequence (P21453 whole entry R120A/E121A) above, with A120R, A121E counted along it
# Procedure: as §3, with “The phospho-ERK1/2 signal was normalized to the ERK1/2 signal.” left out
structure (smiles),measurement,setting,value
"CC(C)Oc1ccc(-c2nc(-c3cccc4c3CC[C@H]4NCCO)no2)cc1C#N [Compound 85, (R)-5-(3-(1-(2-hydroxyethylamino)-2,3-dihydro-1H-inden-4-yl)-1,2,4-oxadiazol-5-yl)-2-isopropoxybenzonitrile]",TNBS induced colon shortening,TNBS induced colitis,15%
"CC(C)Oc1ccc(-c2nc(-c3cccc4c3CC[C@@H]4N)no2)cc1C#N [Compound 50, (S)-5-(3-(1-amino-2,3-dihydro-1H-inden-4-yl)-1,2,4-oxadiazol-5-yl)-2-isopropoxy-benzonitrile]",Effect of mutation on binding of compound (in words),S1P1 R120A/E121A; S1P1 R120A/E121A,has no influence on the binding
same,Fold change in EC50 compared to wild type S1P1,"S1P1 R120A/E121A; S1P1 variant R120A/E121A, phospho-ERK1/2",2
same,Effect of mutation on binding of compound (in words),S1P1 N101A; S1P1 N101A,reduces the binding
same,Fold change in EC50 compared to wild type S1P1,"S1P1 N101A; S1P1 variant N101A, phospho-ERK1/2",32
same,Effect of mutation on binding of compound (in words),S1P1 W269L,abolishes binding
same,Phosphorylation of ERK1/2 by S1P1 agonist (in words),S1P1/EDG1,induce phosphorylation of ERK1/2
